From ChEMBL document CHEMBL3301448, “MMV Malaria Box screening against Toxoplasma gondii and Entamoeba histolytica”

Assays:
[1] = system: Entamoeba histolytica; assay: MMV: Primary screening was performed with each compound at a 30 uM final concentration and in triplicate in sealed 96-well polystyrene microtiter plates. Parasite inocula (100 ul) comprising 20000 parasites/ml were added to each well and grown at 37 degrees C in a humidified atmosphere of 5% CO2 for 72 h. Positive controls consisted of metronidazole at 1 mg/ml. The growth of E. histolytica trophozoites in each well was determined microscopically by measuring the diameters of the confluent cells in drug-containing wells relative to those in the nega- tive-control wells.; format: functional, organism-based
[2] = system: Toxoplasma gondii; assay: MMV: A total of 100ul of inoculum was added to each well (parasite/cell ratio, ~10:1; final volume, 200 ul). Six hours after inoculation, nonadherent parasites were removed, and 100 ul of complete DMEM (1% penicillin-streptomycin, 3% FBS) supplemented with inhibitors at different concentrations (2-fold serial dilutions starting from 30 uM) was added to all except the negative-control wells. Positive controls, consisting of pyrimethamine (PYR) and sulfadiazine (SDZ) (20-mg/ml stocks in DMSO), were tested at a 2mg/ml final concentration. Each test was performed in triplicate.; format: functional, organism-based; conditions: 6 h

SMILES | IC50 [1] [µM] | IC50 [2] [µM]
COc1cccc(Cn2c(Oc3ccccc3)nc3c2c(=O)n(C)c(=O)n3C)c1 | > 30 | > 30
CCOc1ccccc1CN1CCc2nc3cc(C(C)(C)C)nn3c(O)c2C1 | > 30 | > 30
Cc1cc(N2CCCC2)nc(Nc2ccc(NC(=O)CCc3ccccc3)cc2)n1 | > 30 | > 30
CN1CCN(c2ncnc3c2[nH]c2ccc(Cl)cc23)CC1 | > 30 | > 30
O=C1c2ccccc2-c2nnc(-c3ccc(Br)cc3)cc21 | > 30 | > 30
CN(C)CCNc1cc(-c2ccccc2)nc2ccccc12 | > 30 | 3.05
CCOC(=O)C1=C(C)N=c2sc(=Cc3ccccc3O)c(=O)n2C1c1ccc(OC)c2ccccc12 (configuration not stated) | > 30 | > 30
CCOC(=O)C1=C(C)N=c2sc(=Cc3cc(Cl)ccc3O)c(=O)n2C1c1ccc(OC)cc1 (configuration not stated) | > 30 | 24.9
Cc1nc2ccccc2c(O)c1CC=C(Cl)Cl | > 30 | > 30
FC(F)(F)c1cccc(Nc2nc3ccccc3nc2Nc2cccc(C(F)(F)F)c2)c1 | > 30 | > 30
COc1ccc2nc(C)cc(Nc3cccc(O)c3)c2c1 | > 30 | > 30
CN(C)CCCNCc1ccc(-c2ccc(F)c(Cl)c2)o1 | > 30 | > 30
O=c1nc(C=Cc2ccc(Br)cc2)oc2ccccc12 | > 30 | > 30
COc1ccc2nc(N)nc(C)c2c1 | > 30 | > 30
CC(=O)c1ccc(NC(=O)CSc2nc(-c3ccccc3Cl)ns2)cc1 | > 30 | 14.9
O=C(NC1CCCCC1)C(c1cccs1)N(CCc1ccccc1)C(=O)c1ccco1 (configuration not stated) | > 30 | > 30
COc1ccc(C(=O)NC(c2ccc(Cl)cc2Cl)c2cc(Cl)c3cccnc3c2O)cc1 (configuration not stated) | > 30 | > 30
CCC(=O)Nc1nnc(Cc2ccc(OC)c(OC)c2)s1 | > 30 | > 30
c1ccc2c(NCCCCCCNc3c4c(nc5ccccc35)CCCC4)c3c(nc2c1)CCCC3 | > 30 | > 30
O=C(NCCCN1CCC(N2CCCCC2)CC1)C1=Cc2cc(Br)ccc2OC1 | > 30 | > 30
Cc1ccnc(NC(c2cccc(OCc3ccccc3)c2)c2ccc3cccnc3c2O)c1 (configuration not stated) | > 30 | > 30
Nc1ccc(-c2nc3cc(Cc4ccc5[nH]c(-c6ccc(N)cc6)nc5c4)ccc3[nH]2)cc1 | > 30 | > 30

SMILES | IC50 [1] [µM] | IC50 [2] [µM]
CCCCOC(=O)c1ccc(Nc2cc(C)nc3ccc(OC)cc23)cc1 | > 30 | > 30
O=c1cc(NC2CCN(CCCc3ccccc3)CC2)c2cc(Cl)ccc2o1 | > 30 | > 30
Cc1ccc(OCCCCCCNCCO)c(C)c1 | > 30 | > 30
COc1ccc(C2NCCc3c2[nH]c2ccccc32)cc1CN1CCN(c2ccc(F)cc2)CC1 (configuration not stated) | > 30 | > 30
COc1cccc(C(=O)Nc2ccc(-c3nc4ccccc4[nH]3)cc2)c1 | > 30 | > 30
CCOc1ccc(-n2cc(-c3ccccc3)c3c(SCc4cc(C)ccc4C)ncnc32)cc1 | > 30 | 11.2
Cc1ccc(C)c(Cn2c(N3CCC(C(=O)NCc4cccs4)CC3)nc3ccccc32)c1 | > 30 | > 30
Cc1ccccc1OCCSc1nc2ccc(NC(=O)c3cccs3)cc2s1 | > 30 | > 30
CC1CCN(Cc2c(O)ccc3cc(-c4nc5ccccc5s4)c(=O)oc23)CC1 | > 30 | > 30
Cc1ccc2cc3c(N)c4c(C)ccc(C)c4nc3nc2c1 | > 30 | > 30
CC(C)CCNCC(O)Cn1c2ccccc2c2ccccc21 (configuration not stated) | > 30 | > 30
COc1ccc(C2C(C(=O)Nc3cccc(OC)c3)c3ccccc3C(=O)N2C2CCCCC2)cc1 (configuration not stated) | > 30 | > 30
CCOC(=O)c1cnc2ccc(Cl)cc2c1NCCCN(C)C | > 30 | > 30
CCOc1ccccc1NC(=O)CN1CCN(C(=O)c2ccco2)CC1 | > 30 | 0.19
c1ccc2c(NCCc3c[nH]c4ccccc34)c3ccccc3nc2c1 | > 30 | 3.05
O=C(Nc1ccc(C23CC4CC(CC(c5ccccc5)(C4)C2)C3)cc1)c1cccs1 | > 30 | > 30
CCN(CC)CCCNc1ccnc2cc3ccccc3cc12 | > 30 | > 30
O=C1c2ccccc2C2=Nc3ccccc3SC(c3cccc(F)c3)C12 (configuration not stated) | > 30 | 18.7
Cc1ccccc1OCCSc1nc2ccc(NC(=O)c3ccccc3)cc2s1 | > 30 | > 30
CCOC(=O)c1cnc2c(C)cccc2c1Nc1ccc(C(C)=O)cc1 | > 30 | > 30
O=C(Nc1ccc(-c2nc3cc4ccccc4cc3[nH]2)cc1)c1cccc(Br)c1 | > 30 | > 30
Cc1ccc(C2CC(C(F)(F)F)n3nc(C(=O)N4CCN(C(c5ccccc5)c5ccccc5)CC4)cc3N2)cc1 (configuration not stated) | > 30 | > 30

SMILES | IC50 [1] [µM] | IC50 [2] [µM]
Cc1ccc2nc(C)cc(Nc3cccc(C(F)(F)F)c3)c2c1 | > 30 | > 30
CC(C)(C)c1ccc(C(=O)Nc2c3c(nn2-c2cccc(Cl)c2)CSC3)cc1 | > 30 | > 30
CCOc1cc2c(cc1OCC)C(c1cc(Cl)c(O)c(OCC)c1)NCC2 (configuration not stated) | > 30 | > 30
COc1ccc(N2CCN(C(CNC(=O)CC(C)(C)C)c3ccc4c(c3)OCO4)CC2)cc1 (configuration not stated) | > 30 | > 30
COc1cccc(C(=O)NC(c2ccc(C)cc2)c2cc(Cl)c3cccnc3c2O)c1 (configuration not stated) | > 30 | > 30
CCCCCCn1c(=N)n(CC(O)COc2cccc(C)c2)c2ccccc21 (configuration not stated) | > 30 | > 30
Oc1ccc(Br)cc1CN1CCN(Cc2cccc(F)c2)CC1 | > 30 | > 30
COc1ccc(-c2cc(=O)oc3c4c(ccc23)OCN(Cc2ccc(F)cc2)C4)cc1 | > 30 | > 30
CCOC(=O)C1(Cc2ccccc2)CCN(Cc2cccc(OC)c2O)CC1 | > 30 | > 30
CCCOCc1cc(CN2CCN(c3cccc(Cl)c3)CC2)c(O)c2ncccc12 | > 30 | > 30
Oc1ccc(C(=C(Cl)Cl)c2ccc(O)cc2)cc1 | > 30 | > 30
CCOc1ccc2c(c1)CN(Cc1ccc(Cl)cc1)CO2 | > 30 | > 30
CC(C)(C)c1ccc2c(c1)CN(Cc1ccc(Cl)cc1)CO2 | > 30 | 20.4
CCCCC(O)(c1ccc(Cl)cc1)C(CN1CCOCC1)c1ccc(Cl)cc1 (configuration not stated) | > 30 | > 30
CN(C)c1ccc(N2C(N)=NC(N)=NC2(C)C)cc1 | > 30 | 28.9
COc1ccc(OC)c(C2C3=C(CC(C)(C)CC3=O)N(c3ccc(Cl)c(Cl)c3)C3=C2C(=O)CC(C)(C)C3)c1 | > 30 | > 30
COc1ccc(C(=O)NC(c2ccccc2Cl)c2cc(Cl)c3cccnc3c2O)cc1 (configuration not stated) | > 30 | > 30
Cc1cc(=O)oc2c1ccc1oc(C(=O)c3ccccc3)c(C)c12 | > 30 | > 30
COc1ccc(CN2CCN(Cc3ccccc3)CC2)c(O)c1 | > 30 | > 30
COc1ccc2c(c1OC)C(=O)N1c3ccccc3N=C(c3ccc(C)cc3)CC21 (configuration not stated) | > 30 | > 30
Oc1c(CN2CCN(c3ccccc3F)CC2)cc(Br)c2cccnc12 | > 30 | > 30
CCCCCCc1cc(O)c2c3c(c(=O)oc2c1)CCC(C)C3 (configuration not stated) | > 30 | > 30

SMILES | IC50 [1] [µM] | IC50 [2] [µM]
OC(CNCc1ccccc1)Cn1c2ccccc2c2ccccc21 (configuration not stated) | > 30 | > 30
CCCc1c(C)nc2ccc(Br)cc2c1O | > 30 | > 30
COc1ccc(CCNC(=O)c2cc(S(=O)(=O)N3CC(C)CC(C)C3)ccc2Sc2ccc(F)cc2)cc1OC (configuration not stated) | > 30 | > 30
CCOc1ccc(Nc2c3ccccc3nc3ccccc23)cc1 | > 30 | > 30
CC1=C(CC(=O)c2cccc([N+](=O)[O-])c2)C(=O)c2ccccc2C1=O | > 30 | > 30
OC1CCCCC1C1(NC(=S)Nc2ccccc2)CCCCC1 (configuration not stated) | > 30 | > 30
OC1=C2C(=Nc3ccccc3SC2c2ccc(Br)cc2)c2ccccc21 (configuration not stated) | > 30 | > 30
COc1ccc(C)c2sc(N(Cc3cccnc3)C(=O)c3ccc(C#N)cc3)nc12 | > 30 | > 30
Clc1ccc2c(N3CCCC3)ccnc2c1 | > 30 | 1.49
CCCCCCC(O)(c1ccc(F)cc1)C(CN1CCOCC1)c1ccccc1 (configuration not stated) | > 30 | > 30
COc1cc(OC)cc(N2C(=O)N(Cc3ccc(C(C)(C)C)cc3)c3ccccc3S2(=O)=O)c1 | > 30 | > 30
COc1ccc(C(=O)C2CC2c2ccc(Cl)cc2)cc1 (configuration not stated) | > 30 | > 30
CCCCCn1c(=N)n(CC(O)COc2cccc(C)c2)c2ccccc21 (configuration not stated) | > 30 | 17.9
O=c1c2c([nH]c3ccccc13)CCCC2 | > 30 | > 30
COc1ccccc1N1C(=N)SC(=Cc2ccc(OCc3ccccc3F)cc2)C1=O | > 30 | > 30
CCN1CCN(c2c(C(=O)c3ccccc3)cnc3cc(OC)c(OC)cc23)CC1 | > 30 | > 30
Cc1c(C)n(CC(O)CNC2CCCCC2C)c2ccccc12 (configuration not stated) | > 30 | > 30
Cc1ccc(S(=O)(=O)c2c(COC(=O)c3cccc(C)c3)c(-c3ccccc3)nn2C)cc1 | > 30 | > 30
CCOC(=O)c1c[nH]c2c(CC)cccc2c1=O | > 30 | > 30
CCCCN(CCCC)S(=O)(=O)c1ccc(NC(=O)c2ccco2)cc1 | > 30 | 1.07
